Activity calls are given as the source filed them. No cut-off for these calls is given here. Non-standard residues stand in square brackets, D forms with d. Residues, ends and D or L forms follow the SMILES beside them. NMeI = CC[C@H](C)[C@H](NC)C(=O)O; NMeD = CN[C@@H](CC(=O)O)C(=O)O; NMeV = CN[C@H](C(=O)O)C(C)C; Pip = O=C(O)[C@@H]1CCCCN1; Lac = C[C@H](O)C(=O)O
What was measured:
Bacillus subtilis [1] = test: Antibacterial activity against Bacillus subtilis NBRC3134 at 100 ug/disk by paper disk method; assay type: functional, organism-based
Cryptococcus neoformans [2] = test: Antimicrobial activity against Cryptococcus neoformans; assay type: functional, organism-based
Staphylococcus aureus [3] = test: Antibacterial activity against Staphylococcus aureus […] at 100 ug/disk by paper disk method; assay type: functional, organism-based
Salmonella enteritidis [4] = test: Antibacterial activity against Salmonella enteritidis NBRC3313 at 100 ug/disk by paper disk method; assay type: functional, organism-based; details: Salmonella enterica subsp. enterica serovar Enteritidis
Aspergillus fumigatus [5] = test: Antifungal activity against Aspergillus fumigatus; assay type: functional, organism-based
Escherichia coli [6] = test: Antibacterial activity against Escherichia coli NBRC14237 at 100 ug/disk by paper disk method; assay type: functional, organism-based
Aspergillus niger [7] = test: Antifungal activity against Aspergillus niger; assay type: functional, organism-based
Candida albicans [8] = test: Antimicrobial activity against Candida albicans; assay type: functional, organism-based
Salmonella enteritidis [9] = test: Antibacterial activity against Salmonella enteritidis NBRC3313 assessed as zone of inhibition at 50 ug/disk by paper disk method; assay type: functional, organism-based; details: Salmonella enterica subsp. enterica serovar Enteritidis
Staphylococcus aureus [10] = test: Antibacterial activity against Staphylococcus aureus […] assessed as zone of inhibition at 50 ug/disk by paper disk method; assay type: functional, organism-based
Bacillus subtilis [11] = test: Antibacterial activity against Bacillus subtilis NBRC3134 assessed as zone of inhibition at 50 ug/disk by paper disk method; assay type: functional, organism-based
Aspergillus fumigatus [12] = test: Antifungal activity against Aspergillus fumigatus assessed as zone of inhibition at 6.25 ug/disk by paper disk method; assay type: functional; details: read-out: IZ
Cryptococcus neoformans [13] = test: Antimicrobial activity against Cryptococcus neoformans at 50 ug/disk by paper disk method; assay type: functional, organism-based
Candida albicans [14] = test: Antimicrobial activity against Candida albicans at 50 ug/disk by paper disk method; assay type: functional, organism-based
Escherichia coli [15] = test: Antibacterial activity against Escherichia coli NBRC14237 assessed as zone of inhibition at 50 ug/disk by paper disk method; assay type: functional, organism-based
Aspergillus niger [16] = test: Antifungal activity against Aspergillus niger at 50 ug/disk by paper disk method; assay type: functional, organism-based

Row | Compound | Activity (Bacillus subtilis [1]) | Activity (Cryptococcus neoformans [2]) | Activity (Staphylococcus aureus [3]) | Activity (Salmonella enteritidis [4]) | Activity (Aspergillus fumigatus [5]) | Activity (Escherichia coli [6]) | Activity (Aspergillus niger [7]) | Activity (Candida albicans [8]) | Activity (Salmonella enteritidis [9]) | Activity (Staphylococcus aureus [10]) | Activity (Bacillus subtilis [11]) | zone of inhibition at 6.25 µg/disc (Aspergillus fumigatus [12]) [mm] | Activity (Cryptococcus neoformans [13]) | Activity (Candida albicans [14]) | Activity (Escherichia coli [15]) | Activity (Aspergillus niger [16])
1 | CC[C@H](C)[C@H]1C(=O)N[C@@H](CC(=O)OC)C(=O)N(C)[C@@H](C(C)C)C(=O)N[C@@H](CC(C)C)C(=O)O[C@@H](C)C(=O)N2CCCC[C@H]2C(=O)N(C)[C@@H](C(C)C)C(=O)N[C@@H](C(C)C)C(=O)N(C)[C@@H](CC(=O)OC)C(=O)N(C)[C@@H]([C@@H](C)CC)C(=O)N1C (cyclo(D(OMe)[NMeV]L[Lac][Pip][NMeV]V[NMeD](OMe)[NMeI][NMeI])) | inactive | inactive | inactive | inactive | inactive | inactive | inactive | inactive | – | – | – | – | – | – | – | –
2 | CC[C@H](C)[C@H]1C(=O)N[C@@H](CC(=O)O)C(=O)N(C)[C@@H](C(C)C)C(=O)N[C@@H](CC(C)C)C(=O)O[C@@H](C)C(=O)N2CCCC[C@H]2C(=O)N(C)[C@@H](C(C)C)C(=O)N[C@@H](C(C)C)C(=O)N(C)[C@@H](CC(=O)O)C(=O)N(C)[C@@H]([C@@H](C)CC)C(=O)N1C [EUJAVANICIN A] (cyclo(D[NMeV]L[Lac][Pip][NMeV]V[NMeD][NMeI][NMeI])) | inactive | – | inactive | inactive | – | inactive | – | – | inactive | inactive | inactive | 23 | inactive | inactive | inactive | inactive
